# PubChem BioAssay (NCI)
#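 Tested at 5 concentrations; 48 h exposure; 96-well plates; endpoints linearly interpolated, else capped at highest concentration. GI50 = concentration required for 50% inhibition of growth. Definition used: TGI = concentration required for complete inhibition of growth.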
# Columns and labels:
# Assay in all cases: NCI tumour cell line growth inhibition, 48 h
# BT-549 breast = system: BT-549 breast
# DU-145 prostate = system: DU-145 prostate
# HL-60(TB) leukemia = system: HL-60(TB) leukemia
# MCF7 breast = system: MCF7 breast
# NCI-H23 lung = system: NCI-H23 lung
# NCI/ADR-RES ovarian = system: NCI/ADR-RES ovarian
# OVCAR-3 ovarian = system: OVCAR-3 ovarian
Compound,GI50 (BT-549 breast) [µM],TGI (BT-549 breast) [µM],GI50 (DU-145 prostate) [µM],TGI (DU-145 prostate) [µM],GI50 (HL-60(TB) leukemia) [µM],TGI (HL-60(TB) leukemia) [µM],GI50 (MCF7 breast) [µM],TGI (MCF7 breast) [µM],GI50 (NCI-H23 lung) [µM],TGI (NCI-H23 lung) [µM],GI50 (NCI/ADR-RES ovarian) [µM],TGI (NCI/ADR-RES ovarian) [µM],GI50 (OVCAR-3 ovarian) [µM],TGI (OVCAR-3 ovarian) [µM]
CCOC(=O)c1c(C)nc2ccc(Cl)cc2c1-c1ccccc1,22.5,57.2,31.6,> 100,14.2,41,24,70.4,28.7,> 100,22.2,80.2,19,43.1
C=C1C(=O)O[C@@H]2C(=O)[C@@H](C)[C@@H]3C=CC(=O)[C@@]3(C)[C@@H](OC(=O)/C(C)=C\C)[C@H]12,–,2.01,–,3.5,–,0.415,–,4.93,–,9.8,–,7.28,–,3.67
CCN(CC)CCOc1ccc(/C(=C(\C)Cc2ccc(OC)cc2)c2ccc(OC(=O)NCc3ccccc3)cc2)cc1,1.7,3.36,2.24,5.56,1.3,2.97,0.269,2.62,3.24,13.3,3.18,11.8,1.85,3.47
CC#CS(=O)(=O)c1ccccc1,–,20.8,–,10.2,–,3.81,–,40.9,–,18.8,–,28.8,–,3.59
S=c1nc2[nH]ncc2c(N/N=C/c2ccccc2)[nH]1,> 100,> 100,> 100,> 100,> 100,> 100,32,47,> 100,> 100,> 100,> 100,48.5,> 100
COc1ccc(/C=C2\CN(Cc3cn(CCCNc4ccnc5cc(Cl)ccc45)nn3)C/C(=C\c3ccc(OC)c(OC)c3)C2=O)cc1OC,1.81,3.79,1.1,2.31,0.685,4.03,0.503,2.45,2.36,7.26,> 100,> 100,0.463,1.68
N#CC(=S)Nc1ccc(Cl)c(Cl)c1,–,> 55.1,–,> 100,11.8,40.9,–,> 73.4,–,> 59.2,–,65.4,–,54.3
O=C(Nc1nccs1)c1cc2c(cc1Cl)Sc1nccn1S2(=O)=O,18.2,35.4,16.3,30,13.6,31.2,6.72,19.9,16.9,33.7,18.9,44.7,15,28.3
CN1CCC[C@@H]1CCO[C@](C)(c1ccccc1)c1ccc(Cl)cc1,9.64,22.4,12.6,25.2,4.03,18,2.98,11.7,10.5,24.3,7.55,21.7,7.96,20.8
O=C1N=C(c2ccccc2)OC1C(=O)c1ccccc1 (stereo unspecified),–,> 100,–,> 100,–,> 100,–,> 100,–,> 100,–,> 100,–,> 100
ClCc1ccc(-c2ccc(Cn3cnc4c(Cl)nc(Cl)nc43)cc2)cc1,3.71,15.5,1.58,2.94,3.25,> 100,1.69,3.51,3.18,14.4,2.5,7.55,1.65,3.05
O=C(Nc1ccccc1)Nc1cccc(-n2cc(-c3ccncc3)c(-c3ccc(O)c(Cl)c3)n2)c1,3.29,12.7,5.66,> 100,2.32,5.36,2.75,17.8,3.82,21.4,6.49,82.6,–,–
C/C(CC(=O)NNc1ccc([N+](=O)[O-])cc1)=N\Nc1ccc([N+](=O)[O-])cc1,–,–,17.4,89.9,2.48,> 100,12.9,> 100,15,39.3,15.1,> 100,8.03,31.1
C=C1C(=O)O[C@H]2[C@H]1CC/C(Cn1cc(Cn3ccc4ccccc43)nn1)=C\CC[C@@]1(C)O[C@@H]21,1.38,2.69,1.64,3.01,1.2,3.79,1.3,3.18,2.5,6.49,5.07,21.6,1.62,3.01
COc1ccc(N(CC(=O)NCCC[Te]c2ccccc2)C(=O)CCSC2=C(C)C(=O)c3ccccc3C2=O)cc1,0.508,3.43,1.44,3.24,2.97,> 26.1,0.585,11.3,0.623,2.83,1.46,6.16,1.44,3.19
C#CCN=C(N/N=C/c1ccc([N+](=O)[O-])o1)NS(=O)(=O)c1cc(C)c(Cl)cc1SCC(N)=O,1.79,9.43,11.6,24.5,21.1,> 100,6.59,22.5,18.5,33.1,94.3,> 100,24.9,41.1
O=C1OCc2c1cc(F)cc2[N+](=O)[O-],> 100,> 100,> 100,> 100,> 100,> 100,> 100,> 100,> 100,> 100,> 100,> 100,> 100,> 100
COc1ccc(/C(C)=C(\c2ccc(Cl)cc2)c2ccc(OCCN3CCCC3)cc2)cc1F,3.24,6.74,3.9,8.28,3.54,7.89,2.41,6.15,3.55,7.27,3.9,7.8,3.93,8.38
